Reference: article PMC6711404 (Science signaling, 2017)
Where “and” joins values, the source holds several entries; their conditions need not be identical. Equal entries are not always repeated.

Tests used:
[1] = tested on: pRII (PKA-II signaling activity) in rat sensory neurons; assay type: cell-based; settings: for IC50: read-out: IC50 on pRII signals induced by 5-HT
[2] = tested on: pRII (PKA-II signaling activity) in mouse sensory neurons; assay type: cell-based

Compound	Neuron subgroups in which pRII intensity is increased [1]	pRII response in Nav1.7-/- versus Nav1.7+/+ cultures [2]	Effect on 5-HT-induced pRII intensity [1]	further results
NCCc1c[nH]c2ccc(O)cc12 [5-HT]	predominately activated RIIβ(+) neurons	the maximum amplitude but not the EC50 of the pRII response to 5-HT was reduced	–	Numbers of RIIβ(+) neurons responsive to 5-HT [2]: 27.8 ± 1.3% and 19.1 ± 1.2%; Smaller sized sensory neurons with increased pRII signals [2]: 17% and 21%
C=C[C@@]1(C)CC(=O)[C@]2(O)[C@@]3(C)[C@@H](O)CCC(C)(C)[C@@H]3[C@H](O)[C@H](OC(C)=O)[C@@]2(C)O1 [Fsk, forskolin]	all rat sensory neurons, both RIIβ(-) and RIIβ(+) neurons	the same	–	Population of Fsk-responding cells [2]: 28% and 23%
8-bromoadenosine-3′,5′-cyclic monophosphorothioate, Sp-isomer, and acetoxymethyl ester [Sp-8-Br-cAMPS-AM]	–	the same	–	–
O=C1CC[C@@]2(O)[C@H]3Cc4ccc(O)c5c4[C@@]2(CCN3CC2CC2)[C@H]1O5 [naltrexone]	–	–	no effect	Effect on basal pRII intensity [1]: no effect; Effect on baseline amount of pRII [2]: Neither fentanyl nor naltrexone altered
Cn1cc(C(=O)OCC2CCN(CCNS(C)(=O)=O)CC2)c2ccccc21 [GR113808]	–	–	blocked	IC50 [1]: 8.6 nM
CCCCC[C@H](O)/C=C/[C@@H]1[C@H]2C/C(=C/CCCC(=O)O)O[C@H]2C[C@H]1O [PGI2, prostacyclin]	predominately activated RIIβ(+) neurons	the same	–	–
CTOP	–	–	did not affect	Effect on DAMGO inhibition of the 5-HT-induced increase in pRII [1]: partially; Effect on basal pRII intensity [1]: did not affect
DAMGO	–	–	–	IC50 [1]: 321 nM; Inhibition of 5-HT-induced pRII: Nav1.7-/- versus wild-type neurons [2]: The IC50 to inhibit 5-HT-induced pRII was similar, but the maximum response was greater
